According to US20130101509A1, “IMAGING AND RADIOTHERAPY METHODS” (GENERAL ELECTRIC COMPANY, priority 2008, published 2013):
pIC50: −log10 of the molar value.

What was measured:
[1] = target: T1, Aldehyde Dehydrogenase (Yeast ALDH) (Saccharomyces cerevisiae, UniProt P46367); test: ALDH assay by spectroscopic method (screening for ALDH activity); assay type: biochemical; settings: substrate reagent 50 μM in 0.1M TrisHCl pH 8.0, change in absorbance or fluorescence as a function of time
T1 sequence (P46367 25-519): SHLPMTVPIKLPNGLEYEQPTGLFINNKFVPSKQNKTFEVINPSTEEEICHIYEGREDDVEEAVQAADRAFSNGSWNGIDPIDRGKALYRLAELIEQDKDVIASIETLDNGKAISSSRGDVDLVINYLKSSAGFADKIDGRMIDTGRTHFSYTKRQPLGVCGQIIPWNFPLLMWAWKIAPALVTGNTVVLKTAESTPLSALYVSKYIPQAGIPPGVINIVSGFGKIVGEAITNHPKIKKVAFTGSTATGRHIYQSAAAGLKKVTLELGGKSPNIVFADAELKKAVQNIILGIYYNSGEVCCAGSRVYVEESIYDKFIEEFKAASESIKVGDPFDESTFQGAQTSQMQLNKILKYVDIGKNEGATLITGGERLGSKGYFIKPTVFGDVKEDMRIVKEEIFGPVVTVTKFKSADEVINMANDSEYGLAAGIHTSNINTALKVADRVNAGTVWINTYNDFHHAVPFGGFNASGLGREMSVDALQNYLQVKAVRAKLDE
Text: Aldehyde Dehydrogenase is an enzyme that acts on aldehydes as substrates and converts them to acid (products).
Designing and Standardization of ALDH Assay: • following the conversion of NAD+ to NADH typically one does the ALDH assays.
[drawing 72] • The formation of NADH is monitored by measuring the absorbance at 340 nm. However, before employing this method, the compounds were screened for their spectral properties, especially to avoid any interference in absorbance either from the substrate or the product.
Such compounds were further screened for their fluorescence properties by recording their excitation/emission wavelengths.
ALDH Assay by Spectroscopic Method: • The ALDH assay is designed to measure either the utilization of the substrate or formation of product by measuring at their unique wavelengths (Absorbance or Fluorescence).
All the spectral studies for the compounds were carried out in 0.1M Tris HCl pH 8.0 buffer. CSCT Compounds were initially dissolved in Methanol (˜2.0 mg/mL). The compounds were further diluted in 0.1M Tris HCl pH 8.0 buffer (concentration ranging from ˜20 to 50 μg/mL). The Spectra was recorded using Spectramax M5.
The ALDH activity can be followed either by monitoring the conversion of β-NAD^+ to β-NADH or by directly monitoring the product/substrate. The conversion of β-NAD^+ to β-NADH yields increasing in absorbance at 340 nm. If either the substrate/products have any spectral interference at this wavelength then unique absorbance/fluorescence wavelength of either product/substrate are used. The measurements were taken on Spectromax M5.
• 1. Reagent 1: 1 M Tris HCl Buffer, pH 8.0 at 25° C. (Prepare 50 ml in deionized water using Trizma Base, Sigma Prod. No. T-1503. Adjust to pH 8.0 at 25° C. with 1 M HCl.) • 2. Reagent 2: 20 mM β-Nicotinamide Adenine Dinucleotide, Oxidized Form, Solution (β-NAD^+) (Prepare 1 ml in deionized water using β-Nicotinamide Adenine Dinucleotide, PREPARE FRESH). • 3. Reagent 3: 3 M Potassium Chloride Solution (KCl) (Prepare 1 ml in deionized water using Potassium Chloride). • 4. Reagent 4: 1 M 2-Mercaptoethanol Solution (2-ME) (Prepare 1 ml in deionized water using 2-Mercaptoethanol. PREPARE FRESH.) • 5. Reagent 5: 100 mM Tris HCl Buffer with 0.02% (w/v) Bovine Serum Albumin, pH 8.0 at 25° C. (for Enzyme Dilution). • 6. Reagent 6: Aldehyde Dehydrogenase Enzyme Solution (Yeast ALDH). Immediately before use, prepare a solution containing 0.5-1 unit/ml of Aldehyde Dehydrogenase in cold Reagent 5).
Pipette (in milliliters) the following reagents into vial:
In a 3.00 ml reaction mix, the final concentrations are 103 mM Tris HCl Buffer (Reagent 1), 0.67 mM β-nicotinamide adenine dinucleotide (Reagent 2), 100 mM potassium chloride (Reagent 3), 10 mM 2-mercaptoethanol (Reagent 4), 0.0007% (w/v) bovine serum albumin (Reagent 5) and 0.05-0.1 unit aldehyde dehydrogenase (Reagent 6).

ALDH = test: Cell based ALDH assay: competition against ALDEFLUOR in SK-BR-3 cells, FACS
Description: Briefly, the compound was dissolved in DMSO and competed against ALDEFLUOR™, a BODIPY-conjugated ALDH substrate, in a cell-based assay using SK-BR-3 cells. The BODIPY fluorescence in the cell samples were measured using FACS at 488 nm. The median fluorescence of each sample was measured and fitted to a sigmoidal dose-response curve for calculation of IC50 using Prism Graphpad.
6-(2-fluoroethyloxy)-2-naphthaldehyde was dissolved and diluted in DMSO prior to use.
SK-BR-3 cells, a cell line reported to have a high expression of ALDH+ cells, was used for all experiments. The cells were cultured in RPMI media supplemented with 10% fetal bovine serum and 2 mM L-glutamine, in 37° C., 5% CO2. On the day of assay, cells were harvested by trypsination, centrifuged, and re-suspended in ALDEFLUOR™ assay buffer to a concentration of 1×10^6 cells.
The compound was competed against ALDEFLUOR™, a BODIPY-conjugated ALDH substrate. […] Following incubation at 37° C., the fluorescence was measured in each sample by FACS at 488 nm. […]
The median fluorescence of each sample was calculated, and the values were then normalized and fitted to a dose-response curve for calculation of IC50 using Prism Graphpad.

Row | Comments (ALDH assay screening result) [1] | pIC50 (ALDH; competition against ALDEFLUOR, BODIPY fluorescence by FACS at 488 nm, compound 0.005-50 μM) | Compound | Displacement of ALDEFLUOR (decrease in fluorescence with increasing compound concentration) (ALDH; FACS at 488 nm)
1 | Active | – | O=Cc1ccc2ccccc2c1 [2-Naphthaldehyde] | –
2 | Active | – | O=Cc1ccc(I)cc1 [4-Iodobenzaldehyde] | –
3 | Active | – | O=Cc1ccc(F)cc1 [4-fluorobenzaldehyde] | –
4 | Active | – | COc1ccc2cc(C=O)ccc2c1 [6-Methoxy-2-Naphthaldehyde] | –

Further lines, the compound ahead of its results:

Row | Compound | Comments (ALDH assay screening result) [1] | pIC50 (ALDH; competition against ALDEFLUOR, BODIPY fluorescence by FACS at 488 nm, compound 0.005-50 μM) | Displacement of ALDEFLUOR (decrease in fluorescence with increasing compound concentration) (ALDH; FACS at 488 nm)
5 | COc1cccc(C=O)c1 [3-anisladehyde] | Active | – | –
6 | O=CCCNC(=O)c1ccc(F)cc1 [Example 2, (2-formylethyl)-4-fluorobenzamide] | Not active | – | –
7 | O=Cc1ccc2cc(OCCCF)ccc2c1 [Example 3, 6-(3-fluororpropyloxy)-2-naphthaldehyde] | Active | – | –
8 | O=Cc1ccc2cc(OCCF)ccc2c1 [Example 3A, 6-(2-fluoroethyloxy)-2-naphthaldehyde] | Active | 6.48 | displaced ALDEFLUOR™
